Seven compounds from PubChem BioAssay (NCI) can be followed below.

Some test systems named below: T-47D breast; SF-295 CNS; PC-3 prostate; OVCAR-5 ovarian; 786-0 renal; UACC-62 melanoma; SF-268 CNS; MDA-MB-435; U251 CNS; SNB-19 CNS.
What all share (test): NCI tumour cell line growth inhibition, 48 h

“And” between values parts separate entries of the source, which are not always exact repeats. Identical values can stand only once.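 All cell lines were grown in 96-well plates and treated with compound for 48 hours. Here, GI50 denotes the concentration required for 50% inhibition of growth. TGI: concentration producing complete growth inhibition.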 Bounds are passed on as bounds.

For the compound `C[C@]12CCC3c4ccc(O)cc4CCC3C1CC[C@@]2(O)CNC(=O)/C=C/c1ccc(O)c(O)c1` (some centres not stated), the GI50 was 6.61 µM with T-47D breast; 4.07 µM in the test with SF-295 CNS; 5.65 µM in the test with PC-3 prostate; 25.1 µM in the test on OVCAR-5 ovarian; 11.4 µM in the test on 786-0 renal; 5.22 µM in the test with UACC-62 melanoma. Also, the GI50 with SF-268 CNS was 9.45 µM; with MDA-MB-435 it was 3.01 µM; in the test on U251 CNS it was 3.02 µM; in the test on SNB-19 CNS, 10.6 µM. The TGI with T-47D breast was 23.9 µM; in the test with SF-295 CNS it was 22.1 µM; in the test with PC-3 prostate, 22.8 µM; with OVCAR-5 ovarian, 46.9 µM; with 786-0 renal, 24.9 µM; in the test on UACC-62 melanoma, 17 µM. The TGI was over 100 µM in the test on SF-268 CNS, 8.07 µM in the test on MDA-MB-435, 10.6 µM in the test on U251 CNS and 23.8 µM in the test with SNB-19 CNS.

Turning to `O=C1CCCCN1c1ccccc1C#C/C=C\C#Cc1ccccc1C(F)(F)F`, the GI50 in the test with T-47D breast is over 50 µM; with SF-295 CNS, 1.11 µM; with PC-3 prostate it was 2.32 µM; in the test with OVCAR-5 ovarian, 3.35 µM; with 786-0 renal it was 1.61 µM; with UACC-62 melanoma it was 1.44 µM. For the same compound, the GI50 in the test on SF-268 CNS is 3.81 µM; in the test with MDA-MB-435, 0.603 µM; in the test on U251 CNS, 1.52 µM; with SNB-19 CNS, over 50 µM. The TGI in the test with T-47D breast is over 50 µM; in the test on SF-295 CNS, 3.16 µM; in the test on PC-3 prostate it was over 50 µM; in the test with OVCAR-5 ovarian it was over 50 µM; in the test with 786-0 renal, 7.26 µM; in the test on UACC-62 melanoma, 4.86 µM. For the same compound, the TGI in the test on SF-268 CNS was over 50 µM; with MDA-MB-435 it was 1.8 µM; in the test on U251 CNS it was 5.26 µM; in the test with SNB-19 CNS, over 50 µM.

`CC(C)[C@@H]1C=C2CC[C@H]3[C@](C)(CN)CCC[C@]3(C)[C@H]2CC1`: the GI50 in the test with T-47D breast was 1.99 µM; with SF-295 CNS, 1.9 µM; in the test on PC-3 prostate it was 5.59 µM; in the test with OVCAR-5 ovarian it was 2.22 µM; with 786-0 renal, 2.02 µM; in the test with UACC-62 melanoma, 16 µM. Further, the GI50 in the test with SF-268 CNS was 7.27 µM; with MDA-MB-435 it was 1.98 µM; in the test with U251 CNS, 1.76 µM; in the test with SNB-19 CNS it was 8.17 µM. Moreover, the TGI in the test on T-47D breast turned out to be 4.61 µM; in the test on SF-295 CNS, 4.29 µM; in the test on PC-3 prostate, 19.6 µM; in the test on OVCAR-5 ovarian, 5.38 µM; with 786-0 renal, 4.1 µM; with UACC-62 melanoma, 30.5 µM. Also, the TGI in the test with SF-268 CNS was determined as 20.7 µM; in the test with MDA-MB-435, 4.2 µM; with U251 CNS, 3.28 µM; with SNB-19 CNS it was 21.1 µM.

Take `CCCCCCCCCCCCCCCC[N+](C)(C)Cc1ccccc1`: the GI50 in the test with T-47D breast was 1.31 µM and 1.48 µM; in the test on SF-295 CNS it was 1.55 µM; with PC-3 prostate, 0.537 µM; with 786-0 renal, 1.52 µM; in the test on UACC-62 melanoma, 1.36 µM; in the test on MDA-MB-435 it was 1.54 µM. The TGI was 5.62 µM and 6.1 µM with T-47D breast; 3.29 µM in the test with SF-295 CNS; 2 µM in the test with PC-3 prostate; 2.93 µM in the test on 786-0 renal; 2.98 µM in the test on UACC-62 melanoma; 2.91 µM with MDA-MB-435.

Regarding `Cc1ccc(-n2c3nc(=O)[nH]c(=O)c-3cc3cc([N+](=O)[O-])ccc32)cc1`, the GI50 in the test on T-47D breast was 14.3 µM; in the test on SF-295 CNS it was 15.9 µM; in the test with PC-3 prostate, 12.2 µM; in the test on OVCAR-5 ovarian, 21.1 µM; in the test with 786-0 renal, 10.3 µM; in the test on UACC-62 melanoma it was 12.1 µM. For the same compound, the GI50 was 17.3 µM with SF-268 CNS, 4.01 µM in the test with MDA-MB-435, 5.14 µM with U251 CNS and 17.3 µM in the test with SNB-19 CNS. For the same compound, the TGI in the test on T-47D breast is 36 µM; in the test on SF-295 CNS, 37.3 µM; in the test on PC-3 prostate, 36.6 µM; in the test on OVCAR-5 ovarian it was 50.2 µM; with 786-0 renal, 29.5 µM; in the test with UACC-62 melanoma, 29.8 µM. Moreover, the TGI is 54.8 µM in the test on SF-268 CNS, 17.7 µM in the test on MDA-MB-435, over 100 µM in the test with U251 CNS and 74 µM in the test with SNB-19 CNS.

On to `O=C(/C(=C/c1ccc([N+](=O)[O-])cc1)SCc1ccccc1)c1ccc(Cl)cc1`, for which the GI50 in the test on T-47D breast is 2.41 µM; in the test with SF-295 CNS it was 5.54 µM; in the test on PC-3 prostate, 2.35 µM; with OVCAR-5 ovarian, 2.98 µM; in the test with 786-0 renal it was 1.77 µM; in the test on UACC-62 melanoma, 2.56 µM. The GI50 in the test with SF-268 CNS is 3.09 µM; in the test on MDA-MB-435, 3.22 µM; with U251 CNS, 1.88 µM; in the test on SNB-19 CNS, 3.59 µM. For the same compound, the TGI was 7.46 µM in the test on T-47D breast; 18.9 µM with SF-295 CNS; 5.43 µM with PC-3 prostate; 11.9 µM in the test on OVCAR-5 ovarian; 3.41 µM in the test with 786-0 renal; 9.12 µM in the test with UACC-62 melanoma. Also, the TGI is 13.1 µM in the test with SF-268 CNS, 11.4 µM in the test with MDA-MB-435, 4.09 µM with U251 CNS and 15.6 µM with SNB-19 CNS.

Take `CCN1C(=O)N(c2ccccc2)C2NC(=S)N(/N=C/C=C/c3ccccc3OC)C21` (configuration not stated): the GI50 in the test with T-47D breast is 4.12 µM; with SF-295 CNS, 0.0749 µM; in the test on PC-3 prostate, 0.111 µM; with OVCAR-5 ovarian, 0.17 µM; in the test on 786-0 renal it was 0.182 µM; with UACC-62 melanoma, 0.0698 µM. The GI50 is 0.195 µM with SF-268 CNS, 0.0356 µM with MDA-MB-435, 0.106 µM with U251 CNS and 0.133 µM with SNB-19 CNS. Also, the TGI is over 100 µM in the test with T-47D breast; 25.7 µM with SF-295 CNS; over 89.3 µM in the test on PC-3 prostate; over 86.2 µM with OVCAR-5 ovarian; over 68.8 µM with 786-0 renal; over 100 µM in the test with UACC-62 melanoma. Moreover, the TGI was over 100 µM with SF-268 CNS, 0.155 µM in the test on MDA-MB-435, over 43.8 µM with U251 CNS and over 52.9 µM in the test with SNB-19 CNS.
